Assay results as given in paper PMC6271395, “Synthesis and Biological Activities of Some New (N^α-Dinicotinoyl)-bis-L-Leucyl Linear and Macrocyclic Peptides” (Molecules, 2014).

What follows are compounds tested on Bacillus subtilis (assay: Agar diffusion antimicrobial test, Bacillus subtilis). Settings: Gram+ve, modified Kirby–Bauer disk diffusion, 10 µg/mL.
Assay type: cell-based
Method: (§1) The newly synthesized compounds 3–12 were tested for their preliminary antimicrobial activity against different microorganisms representing Gram-positive (Bacillus subtilis, Bacillus aureus and Staphylococcus aureus), Gram-negative bacteria (Escherichia coli), yeast (Candida albican) and fungi (Aspergillus niger).
(§2) The antimicrobial activities of the synthesized compounds were determined by the agar diffusion method as recommended by the national committee for clinical laboratory standards (NCCLS). The concentrations of the tested compounds (10 µg/mL) were used according to modified Kirby–Bauer’s disk diffusion method. The degree of inhibition is measured in comparison with that of chloramphinicol and fusidic acid taken as standards.
`COc1ccc(/C(C)=N/NC(=O)[C@H](CC(C)C)NC(=O)c2cncc(C(=O)N[C@@H](CC(C)C)C(=O)N/N=C(\C)c3ccc(OC)cc3)c2)cc1` [Compound 9b] was tested, and the “Inhibition Zome, Bacillus subtilis” value was 1.60 cm. With `CC(C)C[C@H](NC(=O)c1cncc(C(=O)N[C@@H](CC(C)C)C(=O)N/N=C/c2ccc([N+](=O)[O-])cc2)c1)C(=O)N/N=C/c1ccc([N+](=O)[O-])cc1` [Compound 10d] the “Inhibition Zome, Bacillus subtilis” value was 1.85 cm.

What follows are compounds tested on Bacillus aureus (assay: Agar diffusion antimicrobial test, Bacillus aureus). Settings: Gram+ve, modified Kirby–Bauer disk diffusion, 10 µg/mL.
Assay type: cell-based
Method: as §1, §2
In the case of `COc1ccc(/C(C)=N/NC(=O)[C@H](CC(C)C)NC(=O)c2cncc(C(=O)N[C@@H](CC(C)C)C(=O)N/N=C(\C)c3ccc(OC)cc3)c2)cc1` [Compound 9b], the “Inhibition Zome, Bacillus aureus” value is reported as 1.74 cm. `CC(C)C[C@H](NC(=O)c1cncc(C(=O)N[C@@H](CC(C)C)C(=O)N/N=C/c2ccc([N+](=O)[O-])cc2)c1)C(=O)N/N=C/c1ccc([N+](=O)[O-])cc1` [Compound 10d] was tested, and the “Inhibition Zome, Bacillus aureus” value was 2.00 cm.

The compounds below were run on Staphylococcus aureus (assay: Agar diffusion antimicrobial test, Staphylococcus aureus). Settings: Gram+ve, modified Kirby–Bauer disk diffusion, 10 µg/mL.
Assay type: cell-based
Method: as §1, §2
With `COc1ccc(/C(C)=N/NC(=O)[C@H](CC(C)C)NC(=O)c2cncc(C(=O)N[C@@H](CC(C)C)C(=O)N/N=C(\C)c3ccc(OC)cc3)c2)cc1` [Compound 9b] the “Inhibition Zome, Staphylococcus aureus” value was 1.72 cm. For `CC(C)C[C@H](NC(=O)c1cncc(C(=O)N[C@@H](CC(C)C)C(=O)N/N=C/c2ccc([N+](=O)[O-])cc2)c1)C(=O)N/N=C/c1ccc([N+](=O)[O-])cc1` [Compound 10d], the “Inhibition Zome, Staphylococcus aureus” value was 1.92 cm.

The compounds below were run on Escherichia coli (assay: Agar diffusion antimicrobial test, Escherichia coli). Settings: Gram−ve, modified Kirby–Bauer disk diffusion, 10 µg/mL.
Assay type: cell-based
Method: as §1, §2
With `COc1ccc(/C(C)=N/NC(=O)[C@H](CC(C)C)NC(=O)c2cncc(C(=O)N[C@@H](CC(C)C)C(=O)N/N=C(\C)c3ccc(OC)cc3)c2)cc1` [Compound 9b] the “Inhibition Zome, Escherichia coli” value was 0.75 cm. For `CC(C)C[C@H](NC(=O)c1cncc(C(=O)N[C@@H](CC(C)C)C(=O)N/N=C/c2ccc([N+](=O)[O-])cc2)c1)C(=O)N/N=C/c1ccc([N+](=O)[O-])cc1` [Compound 10d], the “Inhibition Zome, Escherichia coli” value was 0.90 cm.

Each compound was assayed on Candida albicans (assay: Agar diffusion antimicrobial test, Candida albicans). Settings: Yeast, modified Kirby–Bauer disk diffusion, 10 µg/mL.
Assay type: cell-based
Method: as §1, §2
`COc1ccc(/C(C)=N/NC(=O)[C@H](CC(C)C)NC(=O)c2cncc(C(=O)N[C@@H](CC(C)C)C(=O)N/N=C(\C)c3ccc(OC)cc3)c2)cc1` [Compound 9b] was tested, and the “Inhibition Zome, Candida albicans” value was 1.00 cm. `CC(C)C[C@H](NC(=O)c1cncc(C(=O)N[C@@H](CC(C)C)C(=O)N/N=C/c2ccc([N+](=O)[O-])cc2)c1)C(=O)N/N=C/c1ccc([N+](=O)[O-])cc1` [Compound 10d] was tested, and the “Inhibition Zome, Candida albicans” value was 0.96 cm.

The compounds below were run on Aspergillus niger (assay: Agar diffusion antimicrobial test, Aspergillus niger). Settings: Fungi, modified Kirby–Bauer disk diffusion, 10 µg/mL.
Assay type: cell-based
Method: as §1, §2
For `COc1ccc(/C(C)=N/NC(=O)[C@H](CC(C)C)NC(=O)c2cncc(C(=O)N[C@@H](CC(C)C)C(=O)N/N=C(\C)c3ccc(OC)cc3)c2)cc1` [Compound 9b], the “Inhibition Zome, Aspergillus niger” value was 1.88 cm. For `CC(C)C[C@H](NC(=O)c1cncc(C(=O)N[C@@H](CC(C)C)C(=O)N/N=C/c2ccc([N+](=O)[O-])cc2)c1)C(=O)N/N=C/c1ccc([N+](=O)[O-])cc1` [Compound 10d], the “Inhibition Zome, Aspergillus niger” value was 2.00 cm.

These compounds were tested on carrageenan-induced edema (assay: Carrageenan-induced edema (rat paw test)). Settings: dose 2.5 mg/kg oral, one hour before carrageenan; male albino rats, eight animals per group; paws excised four hours after drug administration.
Assay type: in vivo
Method: (§3) For the determination of the antiphlogistic potency of the synthesized compounds, two standard tests were realized at a dose level 2.5 and 5 mg/kg body weight of the rats, namely the protection against carrageenan-induced edema according to Winter et al. and the inhibition of plasma PGE2. The latter is known as a good confirming indicator for carrageenan-induced rat paw edema. […] For these compounds, a similar activity profile was realized for the inhibition of plasma PGE2.
(§4) Groups of adult male albino rats (150–180 g), each of eight animals were orally dosed with tested compounds at a dose level of 2.5–5 mg/kg one hour before carrageenan challenge. Foot paw edema was induced by subplantar injection of 0.05 cm^3 of a 1% suspension of carrageenan in saline into the plantar tissue of one hind paw. An equal volume of saline was injected to the other hand paw and served as control. Four hours after drug administration the animals were decapitated, blood was collected, and the paws were rapidly excised. The average weight of edema was examined for the treated as well as the control group and the percentage inhibition of weight of edema was also evaluated. Diclofenac potassium (5 mg/kg) was employed as standard reference against which the tested compounds were compared (Table 2).
For `COc1ccc(/C(C)=N/NC(=O)[C@H](CC(C)C)NC(=O)c2cncc(C(=O)N[C@@H](CC(C)C)C(=O)N/N=C(\C)c3ccc(OC)cc3)c2)cc1` [Compound 9b], the “% Protection against Edema” value was 79.34 ± 0.081%. In the case of `CC(C)C[C@H](NC(=O)c1cncc(C(=O)N[C@@H](CC(C)C)C(=O)N/N=C/c2ccc([N+](=O)[O-])cc2)c1)C(=O)N/N=C/c1ccc([N+](=O)[O-])cc1` [Compound 10d], the “% Protection against Edema” value is reported as 81.00 ± 0.072%.

Same assay, conditions: dose 5.0 mg/kg oral, one hour before carrageenan; male albino rats, eight animals per group; paws excised four hours after drug administration
`COc1ccc(/C(C)=N/NC(=O)[C@H](CC(C)C)NC(=O)c2cncc(C(=O)N[C@@H](CC(C)C)C(=O)N/N=C(\C)c3ccc(OC)cc3)c2)cc1` [Compound 9b] was tested, and the “% Protection against Edema” value was 92.92 ± 0.090%. For `CC(C)C[C@H](NC(=O)c1cncc(C(=O)N[C@@H](CC(C)C)C(=O)N/N=C/c2ccc([N+](=O)[O-])cc2)c1)C(=O)N/N=C/c1ccc([N+](=O)[O-])cc1` [Compound 10d], the “% Protection against Edema” value was 95.82 ± 0.062%.

These compounds were tested on plasma PGE2 (assay: Inhibition of plasma PGE2 (EIA) in carrageenan-challenged rats). Settings: dose 2.5 mg/kg oral; rats n = 8; blood four hours after drug administration; PGE2 EIA kit.
Assay type: in vivo, rat
Method: as §3, §4
Heparinized blood samples were collected from rats (n = 8), plasma was separated by centrifugation at 12,000 g for 2 min at […], immediately frozen, and stored at […] until use. The design correlate EIA prostaglandin E2 (PGE2) kit (Aldrich, Steinheim, Germany) is a competitive immuno assay for the quantitative determination of PGE2 in biological fluids. The kit uses a monoclonal antibody to PGE2 to bind, in a competitive manner, the PGE2 in the sample after a simultaneous incubation at room temperature. The excess reagents were washed away and the substrate was added, after a short incubation time the enzyme reaction was stopped, and the yellow color generated was read on a microplate reader DYNATech, MR 5000 at 405 nm (Dynatech Industries Inc., McLean, VA, USA). The intensity of the bound yellow color is inversely proportional to the concentration of PGE2 in either standard or samples.
For `COc1ccc(/C(C)=N/NC(=O)[C@H](CC(C)C)NC(=O)c2cncc(C(=O)N[C@@H](CC(C)C)C(=O)N/N=C(\C)c3ccc(OC)cc3)c2)cc1` [Compound 9b], the “% Inhibition of Plasma PGE2” value was 57.90 ± 0.040%. For `CC(C)C[C@H](NC(=O)c1cncc(C(=O)N[C@@H](CC(C)C)C(=O)N/N=C/c2ccc([N+](=O)[O-])cc2)c1)C(=O)N/N=C/c1ccc([N+](=O)[O-])cc1` [Compound 10d], the “% Inhibition of Plasma PGE2” value was 63.14 ± 0.023%.

Same assay, conditions: dose 5.0 mg/kg oral; rats n = 8; blood four hours after drug administration; PGE2 EIA kit
In the case of `COc1ccc(/C(C)=N/NC(=O)[C@H](CC(C)C)NC(=O)c2cncc(C(=O)N[C@@H](CC(C)C)C(=O)N/N=C(\C)c3ccc(OC)cc3)c2)cc1` [Compound 9b], the “% Inhibition of Plasma PGE2” value is reported as 77.14 ± 0.052%. In the case of `CC(C)C[C@H](NC(=O)c1cncc(C(=O)N[C@@H](CC(C)C)C(=O)N/N=C/c2ccc([N+](=O)[O-])cc2)c1)C(=O)N/N=C/c1ccc([N+](=O)[O-])cc1` [Compound 10d], the “% Inhibition of Plasma PGE2” value is reported as 79.88 ± 0.031%.

Each compound was assayed on MCF7 (assay: not given). Settings: MTT, 3 days, 37 °C; at least three experiments; read-out: IC50 against breast cell line MCF7.
Assay type: cell-based, human
Method: (§5) The cytotoxicity of the newly synthesized compounds against cancer cell lines in vitro was performed with the MTT assay according to the Mosmann’s method. The MTT assay is based on the reduction of the soluble 3-(4,5-[…]-2-thiazolyl)-2,5-diphenyl-2H-tetrazolium bromide (MTT) into a blue-purple formazan product, mainly by mitochondrial reductase activity inside living cells. The cells used in cytotoxicity assay were cultured in RPMI 1640 medium supplemented with 10% fetal calf serum. Cells suspended in the medium (2 × 10^4 mL^−^1) were plated in 96-well culture plates and incubated at 37 °C in a 5% CO2 incubator. […] The cultured cells were mixed with 20 μL of MTT solution and incubated for 4 h at 37 °C. The supernatant was carefully removed from each well and 100 μL of DMSO were added to each well to dissolve the formazan crystals which were formed by the cellular reduction of MTT. After mixing with a mechanical plate mixer, the absorbance of each well was measured by a microplate reader using a test wavelength of 570 nm. The results were expressed as the IC50, which inducing a 50% inhibition of cell growth of treated cells when compared to the growth of control cells. Each experiment was performed at least three times. There was a good reproducibility between replicate wells with standard errors below 10%.
`CC(C)C[C@H](NC(=O)c1cncc(C(=O)N[C@@H](CC(C)C)C(=O)N/N=C/c2ccc([N+](=O)[O-])cc2)c1)C(=O)N/N=C/c1ccc([N+](=O)[O-])cc1` [Compound 10d] gave an IC50 of 0.00035 µM.

What follows are compounds tested on HS578T (assay: not given). Settings: MTT, 3 days, 37 °C; at least three experiments; read-out: IC50 against breast cell line HS578T.
Assay type: cell-based
Method: as §5
`CC(C)C[C@H](NC(=O)c1cncc(C(=O)N[C@@H](CC(C)C)C(=O)N/N=C/c2ccc([N+](=O)[O-])cc2)c1)C(=O)N/N=C/c1ccc([N+](=O)[O-])cc1` [Compound 10d] was tested, and the IC50 was 5.67 µM.

What follows are compounds tested on MDAMB231 (assay: not given). Settings: MTT, 3 days, 37 °C; at least three experiments; read-out: IC50 against breast cell line MDAMB231.
Assay type: cell-based
Method: as §5
Compound `CC(C)C[C@H](NC(=O)c1cncc(C(=O)N[C@@H](CC(C)C)C(=O)N/N=C/c2ccc([N+](=O)[O-])cc2)c1)C(=O)N/N=C/c1ccc([N+](=O)[O-])cc1` [Compound 10d] has an IC50 of 3.67 µM.

These compounds were tested on MDAMB435 (assay: not given). Settings: MTT, 3 days, 37 °C; at least three experiments; read-out: IC50 against breast cell line MDAMB435.
Assay type: cell-based
Method: as §5
With `CC(C)C[C@H](NC(=O)c1cncc(C(=O)N[C@@H](CC(C)C)C(=O)N/N=C/c2ccc([N+](=O)[O-])cc2)c1)C(=O)N/N=C/c1ccc([N+](=O)[O-])cc1` [Compound 10d] the IC50 was 57.5 µM.
